PMC5594551, “Heterogeneous drug penetrance of veliparib and carboplatin measured in triple negative breast tumors” (Breast Cancer Research : BCR, 2017)
Values joined by “and” are separate entries in the source; they are usually repeats but may differ in a detail not shown here. Equal entries are not always repeated.

Test: Carboplatin quantified by LC-MS in mouse plasma and TNBC xenograft tissue
Type: in vivo, beige SCID mice
Procedure: Forty-one beige DF mice with severe combined immunodeficiency (SCID) (Fox Chase, strain R035948:1) were implanted with 10^6 MDA-MB-231 (N = 10), HCC70 N = 21) or MDA-MB-436 (N = 10) TNBC cells obtained from the ATCC bilaterally in the mammary fat pads (Fig. 1). When the TNBC xenograft tissue size exceeded 200 mm^3, the mice were randomized across the treatment cohorts. Animals were randomized into veliparib low dose (20 mg/kg), veliparib high dose (60 mg/kg) or placebo + C, introduced via oral gavage three times daily for 3 days (all but the two DCE-MRI study mice). Carboplatin at 60 mg/kg was administered intravenously on day 1 and day 2. […]
Thirty-nine mice were euthanized approximately 3 h after the last dose of veliparib and 24 h after the last dose of carboplatin; two mice used in the DCE-MRI pilot were euthanized 1.5 h after single-dose administration of veliparib and carboplatin (Fig. 1). […] A separate fresh-frozen portion of each tissue per animal was ground for quantification of veliparib and carboplatin by LC-MS. […]
Plasma samples (50 μl ) were prepared using protein precipitation with acetonitrile. […] Volume and weight of the pulverized tumor was determined. […]
Veliparib/carboplatin quantification: […]
Concentration of veliparib in tissues were calculated in mg/g and transferred to mg/L by estimating the average density of the livers, muscles and tumors. […]

Q: Which results are given for `N.N.O=C([O-])C1(C(=O)[O-])CCC1.[Pt+2]` [carboplatin]?
A: Carboplatin in TNBC xenograft tissues (24 h after administration, MALDI-MSI and LC-MS): undetectable; Median conc. (RSE %) (plasma, 0.6 h after carboplatin 60 mg/kg intravenously, LC-MS): 24 mg/L and 24 (20) mg/L
